ChEMBL document CHEMBL3988442, “University of Dundee, Small-Polar-MMV Screening Library” (2021)
Values joined by “and” are separate entries in the source; they are usually repeats but may differ in a detail not shown here. Equal entries are not always repeated.

Columns and labels:
Histidine--tRNA ligase [1] = biological target: T1, Histidine--tRNA ligase (Leishmania infantum, UniProt A4I591); assay: Leishmania infantum Histidine tRNA synthetase (LdHisRS); assay type: functional
T1 sequence (A4I591 whole entry): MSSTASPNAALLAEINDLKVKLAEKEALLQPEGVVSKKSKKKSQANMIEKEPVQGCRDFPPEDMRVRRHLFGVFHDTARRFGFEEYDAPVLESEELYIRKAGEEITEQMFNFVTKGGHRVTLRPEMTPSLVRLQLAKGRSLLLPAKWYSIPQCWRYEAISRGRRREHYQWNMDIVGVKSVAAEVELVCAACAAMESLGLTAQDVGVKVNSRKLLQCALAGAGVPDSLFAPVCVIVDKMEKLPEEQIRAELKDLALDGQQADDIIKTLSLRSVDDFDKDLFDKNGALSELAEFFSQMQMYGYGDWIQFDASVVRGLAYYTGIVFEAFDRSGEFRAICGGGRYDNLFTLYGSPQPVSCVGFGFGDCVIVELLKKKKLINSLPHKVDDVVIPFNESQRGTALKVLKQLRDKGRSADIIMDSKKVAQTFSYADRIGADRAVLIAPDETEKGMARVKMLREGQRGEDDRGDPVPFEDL

Histidine--tRNA ligase [2] = biological target: T2, Histidine--tRNA ligase (Trypanosoma cruzi (strain CL Brener), UniProt Q4DA54); assay: Trypanosoma cruzi histidyl tRNA synthetase (Tc-HisRS); assay type: functional
T2 sequence (Q4DA54 whole entry): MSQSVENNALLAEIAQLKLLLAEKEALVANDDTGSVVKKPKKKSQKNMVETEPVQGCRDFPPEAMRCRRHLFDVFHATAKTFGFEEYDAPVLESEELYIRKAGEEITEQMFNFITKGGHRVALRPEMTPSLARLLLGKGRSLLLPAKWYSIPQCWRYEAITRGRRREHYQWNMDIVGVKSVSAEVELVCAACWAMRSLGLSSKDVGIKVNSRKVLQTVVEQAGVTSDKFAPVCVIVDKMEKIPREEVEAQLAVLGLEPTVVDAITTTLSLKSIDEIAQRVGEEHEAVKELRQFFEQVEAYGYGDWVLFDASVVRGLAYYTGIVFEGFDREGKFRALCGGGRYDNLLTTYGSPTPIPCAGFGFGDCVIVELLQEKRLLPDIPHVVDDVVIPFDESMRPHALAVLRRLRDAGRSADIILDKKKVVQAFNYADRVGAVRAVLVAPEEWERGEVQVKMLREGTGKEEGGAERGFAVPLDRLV

ClpP1P2 = ClpP1P2 (Mycobacterium tuberculosis (strain ATCC 25618 / H37Rv), UniProt P9WPC3+P9WPC5); assay: in vitro assay to detect presence of AMC directly proportional to the activity of ClpP1P2. GHDDI collaboration.; assay type: functional
[3] = microbe, parasite or virus in culture; conditions: Mycobacterium tuberculosis, 96 h, read-out: pIC50 (converted)
[4] = microbe, parasite or virus in culture; conditions: Mycobacterium tuberculosis, 72 h, read-out: pIC50 (converted)
[5] = In vitro enzyme assay to detect hydrolysis of chlorophenol red-beta-D-[…] directly proportional to the number of Toxoplasma stably expressing beta-galactosidase; assay type: functional, organism-based, Toxoplasma gondii; conditions: Toxoplasma gondii
Plasmodium falciparum = assay: Calibr Malaria Delayed Death Assay SOP; assay type: functional, organism-based

Chain of ClpP1P2 (P9WPC5 whole entry): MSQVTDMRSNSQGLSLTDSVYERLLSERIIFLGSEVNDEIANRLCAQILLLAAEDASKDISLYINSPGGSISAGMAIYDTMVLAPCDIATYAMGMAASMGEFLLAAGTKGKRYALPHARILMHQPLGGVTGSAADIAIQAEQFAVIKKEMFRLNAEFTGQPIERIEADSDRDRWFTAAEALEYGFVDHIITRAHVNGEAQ
Chain of ClpP1P2 (P9WPC3 whole entry): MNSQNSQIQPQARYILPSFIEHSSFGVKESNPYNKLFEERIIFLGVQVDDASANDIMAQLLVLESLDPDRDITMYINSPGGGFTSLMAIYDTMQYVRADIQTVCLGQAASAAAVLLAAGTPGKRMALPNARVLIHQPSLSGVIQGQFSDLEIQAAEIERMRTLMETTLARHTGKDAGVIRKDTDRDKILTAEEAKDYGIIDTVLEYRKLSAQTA

SMILES | IC50 (Histidine--tRNA ligase [2]) | other results
Nc1nccc(C2CN(Cc3ccc(-c4ccccc4C(=O)O)o3)C2)n1 | 32.2 µM and 50.5 µM | IC50 (Histidine--tRNA ligase [1]): 25.3 µM and 25.4 µM
O=C(O)c1cncc(Cc2ccc(F)cc2)c1 | > 100 µM | –
COc1cccn(CC(=O)N2CCCC3(CCCCC3)C2)c1=O | 4.24 µM and 4.44 µM | IC50 (Histidine--tRNA ligase [1]): 8.99 µM and 8.08 µM
O=C(O)c1ccc2ccc(N3CCN(CC4CC4)CC3)n2c1 | 38.6 µM and 57.7 µM | –
O=C(O)c1cncc(Cc2ccccc2F)c1 | > 100 µM | –
NC1CCN(C2CCN(c3ccc(-c4ccco4)cc3)CC2)CC1 | 34.3 µM and 40.4 µM | IC50 (Histidine--tRNA ligase [1]): 23 µM and 22.9 µM
Cc1ccnc(C2CN(Cc3ccc(-c4ccccc4C(=O)O)o3)C2)n1 | 48.1 µM and 40.7 µM | –
CNc1cc(-c2ccc(COCCN)cc2)c2cc[nH]c2n1 | 38.8 µM and 97 µM | IC50 (ClpP1P2): > 100 µM
c1ccc(-c2noc(CNC3CCCN(c4cccnn4)C3)n2)nc1 (stereo not given) | > 100 µM | IC50 (Histidine--tRNA ligase [1]): 34.2 µM and 44.7 µM
CCN(CC)CCNC(=O)CCc1c(C)nn(-c2ccccc2Cl)c1C | > 100 µM | –
Cc1nc(C)n(CC2CCCN2Cc2nc3ccccc3c(=O)[nH]2)n1 (stereo not given) | > 100 µM | –
Cc1ccc(N2CC3(CCN(c4nccs4)C3)C2)nn1 | > 100 µM | –
Cn1cc(NC(=O)CCc2ccsc2)ccc1=O | 13.3 µM and 13.9 µM | IC50 (Histidine--tRNA ligase [1]): 12.7 µM and 13.3 µM
c1ccc(CNc2ncc(CN3CCCN4CCC[C@H]4C3)cn2)cc1 | 39.6 µM and 38.3 µM | –
c1ccc(CNc2ncc(CN3CC[C@H]4CC[C@@H](C3)N4)cn2)cc1 | > 100 µM | –
c1cnnc(N2CCCC(NCc3nc(-c4ccsc4)no3)C2)c1 (stereo not given) | > 100 µM | –
CN(Cc1nc2ccccc2o1)CC1CCCN1c1cccnn1 (stereo not given) | > 100 µM | –
CN(Cc1nc2ccccc2n1C)CC1CCCN1c1cccnn1 (stereo not given) | 52.7 µM and 52.1 µM | –
Cc1nc(C)n(CC2CCCN2Cc2nc3ccccc3s2)n1 (stereo not given) | > 100 µM | –
CCN1CCC2(CCN(c3ncccn3)CC2)C1=O | > 100 µM | –
Cc1nc(C)n(CC2CCCN2Cc2nc3ccccc3o2)n1 (stereo not given) | > 100 µM | –
Cc1cnc(N2CCCC3(COCCN(c4ccc(C)nn4)C3)C2)nc1 (stereo not given) | > 100 µM | –

SMILES | IC50 (Histidine--tRNA ligase [2]) | other results
Cc1nc(CNC2CCCN(c3cccnn3)C2)no1 (stereo not given) | > 100 µM | –
c1ccc(-c2nc(CNC3CCCN(c4cccnn4)C3)no2)cc1 (stereo not given) | > 100 µM | –
c1cnnc(N2CCCC(NCc3nc(C4CC4)no3)C2)c1 (stereo not given) | 52.8 µM and 48.2 µM | –
O=C(O)CNc1cc(-c2nccnc2N2CCCC2)c2cc[nH]c2n1 | 38.4 µM and 34.5 µM | –
CC(C)(O)CCc1cccc(C(=O)NCc2cnn3cccnc23)c1 | > 100 µM | –
Cc1nc(C)n(CC2CCCN2Cc2nc(N)c3ccccc3n2)n1 (stereo not given) | > 100 µM | –
CNc1cc(-c2cccc(CN)c2)c2cc[nH]c2n1 | 27.7 µM and 26.3 µM | IC50 (ClpP1P2): > 100 µM; IC50 (Histidine--tRNA ligase [1]): 25.1 µM and 23.5 µM
Cc1nc(C)n(CC2CCCN2Cc2nc3ccccc3nc2C)n1 (stereo not given) | > 100 µM | –
CC(C)(C)c1nc(CNC2CCCN(c3cccnn3)C2)no1 (stereo not given) | 39.6 µM and 34.1 µM | IC50 [3]: > 50.1 µM; IC50 [4]: > 50.1 µM
CCN(CC)CCNC(=O)CCc1c(C)nn(-c2cccc(Cl)c2)c1C | > 100 µM | –
COCCN1CCC2(CCN(c3ncccn3)CC2)C1=O | > 100 µM | –
c1cncc(-c2noc(CNC3CCCN(c4cccnn4)C3)n2)c1 (stereo not given) | > 100 µM | –
Cc1cnc(N2CCC3(CCN(CC4CCCC4)C3=O)CC2)nc1 | > 100 µM | –
NCC1CCN(C2CCN(c3ccc(-c4ccco4)cc3)CC2)C1 (stereo not given) | 25.1 µM and 18.7 µM | IC50 (Histidine--tRNA ligase [1]): 25.6 µM and 22.1 µM; IC50 [4]: 11.7 µM; IC50 [5]: 3.86 µM; pIC50 (Plasmodium falciparum): 6.504; IC50 (Plasmodium falciparum; Plasmodium falciparum): 0.343 µM
NCC1Cc2cccc(-c3nccc(N4CCC(O)CC4)n3)c2O1 (stereo not given) | > 100 µM | –
Cc1nccc(C2CN(Cc3ccc(-c4ccccc4C(=O)O)o3)C2)n1 | > 100 µM | –
Cn1nc(Cn2ccnc2)c2c1CN(c1nccs1)C2 | 88.3 µM and 86.2 µM | IC50 (Histidine--tRNA ligase [1]): 20.5 µM and 14.5 µM
COc1cccn(CC(=O)N2CCCC3(CCCO3)CC2)c1=O (stereo not given) | > 100 µM | IC50 (Histidine--tRNA ligase [1]): > 100 µM
CCN(CC)CCNC(=O)CCc1c(C)nn(-c2ccc(Cl)cc2)c1C | > 100 µM | –
Cc1nc(CN(C)CC2CCCN2c2cccnn2)oc1C (stereo not given) | > 100 µM | –
Cn1nc(Cn2ccnc2)c2c1CN(c1ncccn1)C2 | > 100 µM | –
